Where two headings read alike, the source gives them in different places.
System: insulated, electrically stimulated left atrium of the guinea pig
Assay: Therapeutic effect and therapeutic spectrum at the insulated, electrically stimulated left atrium of the guinea pig
Assay type: cell-based
Conditions: mean and average deviation; for EC50 / Emax: Cavia porcellus; for therapeutic spectrum: quotient EC50 decrease/EC50 increase; for Emax: in percentage of the decrease of the amplitude by reduction of the calcium content (1.8 to 0.45 mVal), read-out: Contraction Amplitude maximum increase (%); for Contraction Amplitude maximum increase: maximum contraction amplitude with increasing glycoside concentrations, calcium reduced from 1.8 to 0.45 mVal, 31° C, 3 Hz
Method: Comparison of the therapeutic spectrum of various cardioactive glycosides was undertaken, employing electrical stimulation of the insulated left atrium of guinea pigs. Specifically, the left atrium was suspended in Tyrode solution at 31° C and electrically stimulated by a frequency of 3 Hz with rectangular impulses of 2 m sec. duration and optimum tension. The maximum contraction strength was registered semi-isometrically.
When a constant contraction amplitude has set in, the calcium concentration was reduced from 1.8 to 0.45 mVal. The initial tension was adjusted to 1 g at the start of the test; if necessary, it was adjusted after the readjustment to a solution poor in calcium, however, no longer changed during the further course of the experiment.
Of the glycosides to be tested, stock solutions were prepared in dimethyl acetamide and, for the test with NaCl-solution so diluted that the stated end concentrations were obtained with the addition of 0.1 ml to a bath volume of 80 ml. It was determined in preliminary tests that up to 0.4 ml undiluted dimethyl acetamide were tolerated without influencing the contractility.
If, after reduction of the calcium concnetration, a constant degree of contraction was again obtained after approximately 10 minutes, concentrations of the glycoside to be tested were added in the ratio 1 + 1 + 2 + 4, etc. The period between the individual additions was 15 minutes.
Prior to the change-over to a calcium-poor Tyrode solution and prior to each addition of glycoside, as well as 15 minutes after the last dose, the prestress was measured in grams and the contraction amplitude in mg. The difference of the amplitude was calculated from the test values for the contraction amplitude after reduction of the calcium content. The difference between the contraction amplitude before and after the change-over to a calcium-poor solution was put as equal to 100% amplitude reduction.
It was determined for each individual atrium when, with administration of increasing concentrations of the glycosides, there was obtained
the maximum contraction amplitude ("maximum increase");
increase of the amplitude to 50% of the difference between normal and reduced calcium content ("EC50 increase");
decrease of the contraction amplitude to the same height ("EC50 decrease");
the therapeutic spectrum quotient of the two EC50, i.e. EC50 decrease/EC50 increase.
With these evaluation processes, there are obtained numerical data for the concentration and the period during which the corresponding effect was observed. In order to obtain a uniform basis for the evaluation, differences in the time of the appearance were converted into concentrations according to the following method:
The logarithm of the concentration was graphically plotted against the time in such manner that the lowest concentration was put at 15 minutes, the next higher one at 30 minutes, etc. The evaluation of the tests yielded the time after the start of the test at which the respective effect had appeared. The concentration pertaining to it was read from the diagram.
This procedure is based on the assumption that the concentration increases exponentially at the place of the effect. De facto this assumption is more correct than a regular increase in concentration in stages in the bath liquid since there is a substantial time lapse between the increase of the concentration in the bath and in the tissue.
In addition, the maximum degree of […] was measured in all tests under the influence of the glycosides and in percentage of the decrease of the amplitude by reduction of the calcium content.

[1] = decrease of the contraction amplitude to the same height (50%) at higher concentrations, read-out: EC50 decrease
[2] = increase of the amplitude to 50% of the difference between normal and reduced calcium content, read-out: EC50 increase

Compound | EC50 [1] [µM] | EC50 [2] [µM] | therapeutic spectrum | Emax [%] | Contraction Amplitude maximum increase [mg]
CCC1=C([C@H]2CC[C@]3(O)[C@@H]4CC[C@@H]5C[C@@H](O[C@H]6C[C@H](O)[C@H](O[C@H]7C[C@H](O)[C@H](O[C@H]8C[C@H](O)[C@H](OC)[C@@H](C)O8)[C@@H](C)O7)[C@@H](C)O6)CC[C@]5(C)[C@H]4C[C@H](O)[C@]23C)COC1=O [Example 13, 22-Ethyl-12-epi-β-methyldigoxin] | 40.5 ± 2.6 | 5.9 ± 0.48 | 7.10±0.74 | – | –
C#CCC1=C([C@H]2CC[C@]3(O)[C@@H]4CC[C@@H]5C[C@@H](O[C@H]6C[C@H](O)[C@H](O[C@H]7C[C@H](O)[C@H](O[C@H]8C[C@H](O)[C@H](OC)[C@@H](C)O8)[C@@H](C)O7)[C@@H](C)O6)CC[C@]5(C)[C@H]4C[C@H](O)[C@]23C)COC1=O [Example 26, 22-Propargyl-12-epi-β-methyldigoxin] | 14.6 ± 1.4 | 4.46 ± 0.75 | 3.94±1.0 | – | –
CCC1=C([C@H]2CC[C@]3(O)[C@@H]4CC[C@@H]5C[C@@H](O[C@H]6C[C@H](O)[C@H](O[C@H]7C[C@H](O)[C@H](O[C@H]8C[C@H](O)[C@H](O)[C@@H](C)O8)[C@@H](C)O7)[C@@H](C)O6)CC[C@]5(C)[C@H]4C[C@H](O)[C@]23C)COC1=O [Example 9, 22-Ethyl-12-epi-digoxin] | 39.3 ± 3 | 6.63 ± 0.75 | 6.39±0.96 | – | –
CO[C@H]1[C@@H](O)C[C@H](O[C@H]2[C@@H](O)C[C@H](O[C@H]3[C@@H](O)C[C@H](O[C@H]4CC[C@@]5(C)[C@H](CC[C@@H]6[C@@H]5C[C@H](O)[C@]5(C)[C@@H](C7=CC(=O)OC7)CC[C@]65O)C4)O[C@@H]3C)O[C@@H]2C)O[C@@H]1C [Example 2, 12-Epi-β-methyldigoxin] | 2.78 ± 0.4 | 0.315 ± 0.02 | 8.86±1.17 | 96 ± 6.3 | 666 ± 78
CO[C@H]1[C@@H](O)C[C@H](O[C@H]2[C@@H](O)C[C@H](O[C@H]3[C@@H](O)C[C@H](O[C@H]4CC[C@@]5(C)[C@H](CC[C@@H]6[C@@H]5C[C@H](OC(C)=O)[C@]5(C)[C@@H](C7=CC(=O)OC7)CC[C@]65O)C4)O[C@@H]3C)O[C@@H]2C)O[C@@H]1C [Example 18, 12-Acetyl-12-epi-β-methyldigoxin] | 25.6 ± 2.9 | 4.71 ± 0.81 | 6.50±1.5 | – | –
C[C@H]1O[C@@H](O[C@H]2[C@@H](O)C[C@H](O[C@H]3[C@@H](O)C[C@H](O[C@H]4CC[C@@]5(C)[C@H](CC[C@@H]6[C@@H]5C[C@H](O)[C@]5(C)[C@@H](C7=CC(=O)OC7)CC[C@]65O)C4)O[C@@H]3C)O[C@@H]2C)C[C@H](O)[C@@H]1O [Example 1, 12-Epi-digoxin] | 2.48 ± 0.3 | 0.557 ± 0.07 | 4.49±0.35 | 92 ± 6.5 | 746 ± 56
CO[C@H]1[C@@H](O)C[C@H](O[C@H]2[C@@H](O)C[C@H](O[C@H]3[C@@H](O)C[C@H](O[C@H]4CC[C@@]5(C)[C@H](CC[C@@H]6[C@@H]5C[C@H](O)[C@]5(C)[C@@H](C7=C(C(C)C)C(=O)OC7)CC[C@]65O)C4)O[C@@H]3C)O[C@@H]2C)O[C@@H]1C [Example 14, 22-Isopropyl-12-epi-β-methyldigoxin] | 61.9 ± 5.2 | 21.6 ± 1.9 | 3.08±0.45 | – | –
CC(=O)O[C@H]1C[C@H](O[C@H]2[C@@H](O)C[C@H](O[C@H]3[C@@H](O)C[C@H](O[C@H]4CC[C@@]5(C)[C@H](CC[C@@H]6[C@@H]5C[C@H](O)[C@]5(C)[C@@H](C7=CC(=O)OC7)CC[C@]65O)C4)O[C@@H]3C)O[C@@H]2C)O[C@H](C)[C@H]1O [Example 5, α-Acetyl-12-epi-digoxin] | 2.78 ± 0.28 | 0.848 ± 0.09 | 3.40±0.40 | – | –
CO[C@H]1[C@@H](O)C[C@H](O[C@H]2[C@@H](O)C[C@H](O[C@H]3[C@@H](O)C[C@H](O[C@H]4CC[C@@]5(C)[C@H](CC[C@@H]6[C@@H]5C[C@H](O)[C@]5(C)[C@@H](C7=C(C)C(=O)OC7)CC[C@]65O)C4)O[C@@H]3C)O[C@@H]2C)O[C@@H]1C [Example 12, 22-Methyl-12-epi-β-methyldigoxin] | 17 ± 1.7 | 3.55 ± 0.41 | 5.15±0.59 | – | –
CO[C@H]1[C@@H](O)C[C@H](O[C@H]2[C@@H](O)C[C@H](O[C@H]3[C@@H](O)C[C@H](O[C@H]4CC[C@@]5(C)[C@H](CC[C@@H]6[C@@H]5C[C@@H](O)[C@]5(C)[C@@H](C7=CC(=O)OC7)CC[C@]65O)C4)O[C@@H]3C)O[C@@H]2C)O[C@@H]1C [methyldigoxina., β-methyldigoxin, reference compound] | 0.66 ± 0.04 | 0.23 ± 0.03 | 3.06±0.36 | 75 ± 5 | 292 ± 56
CC(=O)O[C@H]1[C@@H](O)C[C@H](O[C@H]2[C@@H](O)C[C@H](O[C@H]3[C@@H](O)C[C@H](O[C@H]4CC[C@@]5(C)[C@H](CC[C@@H]6[C@@H]5C[C@H](O)[C@]5(C)[C@@H](C7=CC(=O)OC7)CC[C@]65O)C4)O[C@@H]3C)O[C@@H]2C)O[C@@H]1C [Example 6, β-Acetyl-12-epi-digoxin] | 3.76 ± 0.25 | 0.921 ± 0.07 | 4.25±0.51 | – | –
CC(=O)O[C@H]1C[C@H]2[C@@H](CC[C@@H]3C[C@@H](O[C@H]4C[C@H](O)[C@H](O[C@H]5C[C@H](O)[C@H](O[C@H]6C[C@H](O)[C@H](O)[C@@H](C)O6)[C@@H](C)O5)[C@@H](C)O4)CC[C@@]32C)[C@@]2(O)CC[C@H](C3=CC(=O)OC3)[C@@]12C [Example 7, 12-Acetyl-12-epi-digoxin] | 13.8 ± 0.81 | 2.86 ± 0.31 | 5.15±0.71 | – | –

— patent US4107299A, “Cardioactive 12-epi-digoxin and derivatives thereof” (Boehringer Mannheim GmbH, priority 1975, dated 1978)
